According to ChEMBL document CHEMBL1148670, “Keto-1,3,4-oxadiazoles as cathepsin K inhibitors” (Bioorg Med Chem Lett, 2006):

What was measured:
Details in all cases: read-out: Ki app
[1] = biological target: Procathepsin L (Homo sapiens, UniProt P07711); assay: Inhibition of human cathepsin L
[2] = biological target: Cathepsin S (Homo sapiens, UniProt P25774); assay: Inhibition of human cathepsin S
[3] = biological target: T1, Cathepsin K (Homo sapiens, UniProt P43235); assay: Inhibition of human cathepsin K
T1 sequence (P43235 whole entry): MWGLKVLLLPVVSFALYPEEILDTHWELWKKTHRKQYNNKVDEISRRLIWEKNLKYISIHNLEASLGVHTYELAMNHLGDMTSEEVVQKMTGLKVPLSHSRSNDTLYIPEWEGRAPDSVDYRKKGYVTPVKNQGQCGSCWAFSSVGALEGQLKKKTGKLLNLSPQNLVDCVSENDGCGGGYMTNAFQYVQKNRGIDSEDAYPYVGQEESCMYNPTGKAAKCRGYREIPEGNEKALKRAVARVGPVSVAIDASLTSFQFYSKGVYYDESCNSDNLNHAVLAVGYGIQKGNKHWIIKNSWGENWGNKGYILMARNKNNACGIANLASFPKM

[4] = biological target: Cathepsin B (Homo sapiens, UniProt P07858); assay: Inhibition of human cathepsin B

Sequence of Procathepsin L (P07711 whole entry): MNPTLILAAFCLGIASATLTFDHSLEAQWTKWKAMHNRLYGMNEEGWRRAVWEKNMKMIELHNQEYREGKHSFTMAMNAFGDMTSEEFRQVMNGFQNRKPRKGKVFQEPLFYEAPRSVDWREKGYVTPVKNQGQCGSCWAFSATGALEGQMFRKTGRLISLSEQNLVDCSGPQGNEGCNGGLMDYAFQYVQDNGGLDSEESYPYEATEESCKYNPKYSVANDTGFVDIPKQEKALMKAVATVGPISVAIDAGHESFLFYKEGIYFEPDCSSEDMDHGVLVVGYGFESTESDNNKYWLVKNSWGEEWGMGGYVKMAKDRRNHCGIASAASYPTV
Sequence of Cathepsin S (P25774 whole entry): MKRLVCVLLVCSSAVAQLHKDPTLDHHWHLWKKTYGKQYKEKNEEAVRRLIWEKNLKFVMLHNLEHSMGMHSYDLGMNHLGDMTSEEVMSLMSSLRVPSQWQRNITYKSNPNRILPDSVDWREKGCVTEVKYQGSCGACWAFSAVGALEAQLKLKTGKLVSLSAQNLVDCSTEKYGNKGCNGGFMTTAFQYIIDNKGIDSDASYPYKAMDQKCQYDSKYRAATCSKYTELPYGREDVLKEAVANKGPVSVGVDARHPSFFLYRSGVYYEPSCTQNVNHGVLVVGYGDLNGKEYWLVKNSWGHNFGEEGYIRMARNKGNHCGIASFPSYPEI

| Compound | Ki [1] [µM] | Ki [2] [µM] | Ki [3] [µM] | Ki [4] [µM] |
| --- | --- | --- | --- | --- |
| CCC[C@H](NC(=O)CCc1ccccc1)C(=O)c1nnc(-c2ccco2)o1 | 100 | 2.6 | 9.6 | 25 |
| CCC[C@H](NC(=O)Cc1ccccc1)C(=O)c1nnc(-c2ccco2)o1 | 150 | 9.2 | 52 | 110 |
| CCC[C@H](NC(=O)[C@H](CC(C)C)C(=O)OCc1ccccc1)C(=O)c1nnc(-c2ccco2)o1 | 0.001 | < 0.00025 | < 0.00025 | 0.002 |
| CCC[C@H](NC(=O)OC(C)(C)C)C(=O)c1nnc(-c2cccs2)o1 | 63 | 12 | 0.81 | 120 |
| CCC[C@H](NC(=O)OCC(C)C)C(=O)c1nnc(-c2ccco2)o1 | 14 | 0.38 | 0.5 | 16 |
| CCC[C@H](NC(=O)OC(C)(C)C)C(=O)c1nnc(C(C)C)o1 | > 150 | 130 | 5.6 | > 150 |
| CCC[C@H](NC(=O)OCc1ccccc1)C(=O)c1nnc(-c2ccco2)o1 | 28 | 2 | 3 | 34 |
| CCC[C@H](NC(=O)[C@H](CC(C)C)NCC(F)(F)F)C(=O)c1nnc(-c2ccco2)o1 | 2.1 | 0.24 | 0.12 | 48 |
| CCC[C@H](NC(=O)OC(C)(C)C)C(=O)c1nnc(-c2ccccc2OC)o1 | > 150 | 19 | 17 | > 150 |
| CCC[C@H](NC(=O)C1(NC(=O)OC(C)(C)C)CCCCC1)C(=O)c1nnc(-c2ccco2)o1 | 18 | 0.96 | 0.043 | 7.3 |
| CCC[C@H](NC(=O)OC(C)(C)C)C(=O)c1nnc(-c2ccc(N(C)C)cc2)o1 | 130 | 28 | 33 | > 150 |

More lines, now with the values ahead:

| Ki [1] [µM] | Ki [2] [µM] | Ki [3] [µM] | Ki [4] [µM] | Compound |
| --- | --- | --- | --- | --- |
| 1.4 | 3.3 | 0.054 | 1.1 | CCC[C@H](NC(=O)C1(NC(=O)c2ccc(OC(F)(F)F)cc2)CCCCC1)C(=O)c1nnc(-c2cccc(C(F)(F)F)c2)o1 |
| 2.9 | 0.76 | 0.0052 | 0.27 | CCC[C@H](NC(=O)C1(NC(=O)c2ccc(OC(F)(F)F)cc2)CCCCC1)C(=O)c1nnc(-c2cccs2)o1 |
| 0.3 | 0.47 | 0.0079 | 0.098 | CCC[C@H](NC(=O)C1(NC(=O)c2ccc(OC(F)(F)F)cc2)CCCCC1)C(=O)c1nnc(CC)o1 |
| 0.96 | 0.7 | 0.00095 | 0.73 | CCC[C@H](NC(=O)C1(NC(=O)c2ccc(N(C)C)cc2)CCCCC1)C(=O)c1nnc(-c2ccco2)o1 |
| 11 | 13 | 0.55 | 23 | CCC[C@H](NC(=O)C1(NC(=O)c2ccc(OC(F)(F)F)cc2)CCCCC1)C(=O)c1nnc(-c2ccc(C(F)(F)F)cc2)o1 |
| 1 | 0.35 | 0.0017 | 0.22 | CCC[C@H](NC(=O)C1(NC(=O)c2ccc(OC(F)(F)F)cc2)CCCCC1)C(=O)c1nnc(-c2ccco2)o1 |
| 10 | 17 | 1.3 | 10 | CCC[C@H](NC(=O)C1(NC(=O)c2ccc(OC(F)(F)F)cc2)CCCCC1)C(=O)c1nnc(C(C)(C)C)o1 |
| 37 | 20 | 0.022 | 57 | CCC[C@H](NC(=O)C1(NC(=O)c2ccc(OC(F)(F)F)cc2)CCCCC1)C(=O)c1nnc(-c2ccc(OC)cc2)o1 |
| 2.9 | 0.14 | 0.019 | 0.95 | CCC[C@H](NC(=O)C1(NC(=O)c2ccc(F)cc2)CCCCC1)C(=O)c1nnc(-c2ccco2)o1 |
| 19 | 45 | 0.029 | 73 | CCC[C@H](NC(=O)C1(NC(=O)c2ccc(OC(F)(F)F)cc2)CCCCC1)C(=O)c1nnc(-c2ccccc2)o1 |
| 7.5 | 10 | 0.037 | 2.1 | CCC[C@H](NC(=O)C1(NC(=O)c2ccc(OC(F)(F)F)cc2)CCCCC1)C(=O)c1nnc(-c2cccc(OC)c2)o1 |
| 0.16 | 0.32 | 0.0033 | 0.093 | CCC[C@H](NC(=O)C1(NC(=O)c2ccc(OC(F)(F)F)cc2)CCCCC1)C(=O)c1nnc(OC)o1 |
| 4.6 | 0.8 | 0.035 | 0.43 | CCC[C@H](NC(=O)C1(NC(=O)c2ccc(OC(F)(F)F)cc2)CCCCC1)C(=O)c1nnc(C(C)C)o1 |
